In patent US20070219191A1, “3-Pyridinium Methyl Cephem Compound” (priority 2004, published 2007):
Converted amounts (≈) assume the structure as drawn.

Key:
Experiment in all cases: Antibacterial activity, MIC by agar plate dilution method
Assay type in all cases: cell-based
E. coli NIHJ JC-2 = conditions: Escherichia coli, NIHJJC2, 1000 cfu/spot
Protocol: (§1) Antibacterial activity of Compound (I) was examined.
(§2) Minimal inhibitory concentration (MIC: μg/ml) was determined by an agar plate dilution method using a sensitive disc medium as a test medium with an innoculation amount of 1000 cfu/spot in conformance with the standard method established by Japanese Society of Chemotherapy.

H. influenzae ATCC49766 = conditions: Haemophilus influenzae, 1000 cfu/spot
Protocol: as §1, §2

P. aeruginosa SR24 = conditions: Pseudomonas aeruginosa, 1000 cfu/spot
Protocol: as §1, §2

S. pneumoniae Type I = conditions: Streptococcus pneumoniae, 1000 cfu/spot
Protocol: as §1, §2

MIC (E. coli NIHJ JC-2) [µg/mL] | MIC (H. influenzae ATCC49766) [µg/mL] | MIC (P. aeruginosa SR24) [µg/mL] | MIC (S. pneumoniae Type I) [µg/mL] | SMILES
0.125 (≈ 0.198 µM) | 0.063 (≈ 0.0997 µM) | 0.5 (≈ 0.792 µM) | 0.125 (≈ 0.198 µM) | CC(C)(O/N=C(\C(=O)NC1C(=O)N2C(C(=O)[O-])=C(C[n+]3ccc(NC4CCNC4)cc3)CSC12)c1nsc(N)n1)C(=O)O (stereo not shown) [Example 5]
0.25 (≈ 0.406 µM) | 0.016 (≈ 0.026 µM) | 0.5 (≈ 0.812 µM) | 0.125 (≈ 0.203 µM) | Cc1c(N)[nH]c2ccc[n+](CC3=C(C(=O)[O-])N4C(=O)C(NC(=O)/C(=N\OC(C)(C)C(=O)O)c5nsc(N)n5)C4SC3)c12 (stereo not shown) [Example 10]
0.125 (≈ 0.182 µM) | 0.032 (≈ 0.0467 µM) | 0.25 (≈ 0.365 µM) | 0.25 (≈ 0.365 µM) | CC(C)(O/N=C(\C(=O)NC1C(=O)N2C(C(=O)[O-])=C(C[n+]3cccc4c3nc(N)n4C3CCNCC3)CSC12)c1nsc(N)n1)C(=O)O (stereo not shown) [Example 12]
0.125 (≈ 0.186 µM) | 0.032 (≈ 0.0475 µM) | 0.5 (≈ 0.742 µM) | 0.125 (≈ 0.186 µM) | C[C@H](N)CCn1c(N)nc2c1ccc[n+]2CC1=C(C(=O)[O-])N2C(=O)C(NC(=O)/C(=N\OC(C)(C)C(=O)O)c3nsc(N)n3)C2SC1 (stereo partly shown) [Example 19]
